Results on 26 compounds are retold here after ChEMBL document CHEMBL4364312, “Design, synthesis and biological evaluation of hydroxypyridinone-coumarin hybrids as multimodal monoamine oxidase B inhibitors and iron chelates against Alzheimer's disease” (Eur J Med Chem, 2019).

Data set [1] concerns the target T1, Amine oxidase [flavin-containing] B (Homo sapiens, UniProt P27338).
T1 sequence (P27338 whole entry): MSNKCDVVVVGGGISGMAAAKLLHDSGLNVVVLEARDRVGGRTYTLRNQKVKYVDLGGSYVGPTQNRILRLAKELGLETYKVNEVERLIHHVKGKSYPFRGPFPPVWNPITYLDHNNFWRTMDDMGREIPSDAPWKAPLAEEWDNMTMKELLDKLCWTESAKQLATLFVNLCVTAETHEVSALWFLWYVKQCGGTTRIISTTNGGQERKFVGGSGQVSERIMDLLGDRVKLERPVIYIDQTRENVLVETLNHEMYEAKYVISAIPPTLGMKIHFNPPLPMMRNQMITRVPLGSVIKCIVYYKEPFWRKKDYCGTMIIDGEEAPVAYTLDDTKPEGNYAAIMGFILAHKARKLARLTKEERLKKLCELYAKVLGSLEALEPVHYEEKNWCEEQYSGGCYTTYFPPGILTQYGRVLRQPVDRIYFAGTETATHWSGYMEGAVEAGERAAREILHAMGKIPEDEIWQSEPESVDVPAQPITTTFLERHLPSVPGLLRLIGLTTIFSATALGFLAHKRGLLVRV
As to conditions: 0.25 h, read-out: INH.
Description: Inhibition of recombinant human MAO-B expressed in baculovirus infected BTI insect cells at 10 uM incubated for 15 mins with substrate p-Tyramine by fluorescence assay relative to control

Data set [2] can be described thus: physchem. The note with it: DMSO:KCl.
Description: Dissociation constant, pKa1 of compound for protonation of the 4-oxo group in DMSO:KCl at 30 uM/L incubated for 1 min by UV-Vis spectrophotometry
Data set [3] can be described thus: physchem. As to conditions: DMSO:KCl. This is another data set of the same source.
Description: Dissociation constant, pKa2 of compound for 3-(or 5-) hydroxyl group in DMSO:KCl at 30 uM/L incubated for 1 min by UV-Vis spectrophotometry
Data set [4] deals with T1, Amine oxidase [flavin-containing] B. Description: biochemical.
Description: Inhibition of recombinant human MAO-B expressed in baculovirus infected BTI insect cells incubated for 15 mins with substrate p-Tyramine by fluorescence assay
For data set [5], the system named is Mus musculus. Description: Cognition enhancement in scopolamine-induced impairment in ICR mouse assessed as latency time at 10 mg/kg, ip administered once daily for 2 weeks pretreated with scopolamine for 30 mins and measured at 5th day of training session by Morris water maze test (reference value: 40.2 +/- 10.5 sec). Type of data set: functional.
Data set [6] deals with Mus musculus. Description: Cognition enhancement in scopolamine-induced impairment in ICR mouse assessed as number of times to enter target quadrant at 10 mg/kg, ip administered once daily for 2 weeks pretreated with scopolamine for 30 mins and measured at 5th day of training session by Morris water maze test (reference value: 9.0 +/- 0.8). Type of data set: functional.
The subject of data set [7] is U-251. Description: Cytoprotective against H2O2-induced cell death in human U251 cells assessed as increase in cell viability at 100 uM preincubated for 24 hrs followed by H2O2 induction and measured after 1 hr by MTS assay (reference value: 50%). Type of data set: functional. In general terms: Tetrazolium dyes change colour on reduction, which living cells bring about.

Data set [8] relates to Mus musculus. Description: Cognition enhancement in scopolamine-induced impairment in ICR mouse assessed as distance to target at 10 mg/kg, ip administered once daily for 2 weeks pretreated with scopolamine for 30 mins and measured at 5th day of training session by Morris water maze test (reference value: 10.4 +/- 1.2 meter). Type of data set: functional.
Data set [9] deals with U-251. Description: Cytotoxicity against human U251 cells assessed as reduction in cell viability at 0.01 to 100 uM incubated for 24 hrs by MTS assay. Type of data set: cell-based. As to conditions: u-251, 24 h.
The nature of data set [10]: Binding affinity to Fe3+ assessed as equilibrium binding constant logK2 in KCl pH 2 to 10.5 at 30 uM incubated for 20 mins by UV-Vis spectrophotometric method.
A short description of data set [11]: Binding affinity to Fe3+ assessed as equilibrium binding constant logK3 in KCl pH 2 to 10.5 at […] 30 uM by UV-Vis spectrophotometric method.

One may read the IC50 as the point on the concentration scale where inhibition reaches its midpoint. A high value points to lower potency. Turning to `Cc1cc(=O)c(O)cn1Cc1cc2ccc(OCc3cccc(Cl)c3)cc2oc1=O`, in data set [1], the inhibition at 10 µM was found to be 82%. In addition, the pKa at 1 min, 30 µM was 3.16 in the data set “physchem [2]” and 9.07 in “physchem [3]”. The IC50 in data set [4] amounted to 126 nM.

In the case of `CCc1c(O)c(=O)ccn1Cc1cc2ccc(OC)cc2oc1=O`, the inhibition at 10 µM in data set [1] stood at 50.7%. Also, the pKa at 1 min, 30 µM in “physchem [2]” stood at 3.09; in “physchem [3]”, 9.7.

Regarding `C#CCN(C)Cc1ccccc1` [PARGYLINE], the Time in the data set with Mus musculus [5] is reported as 5.6 s. Besides, the Activity turned out to be 16.3 with Mus musculus [6], 61.5% in the data set with U-251 [7] and 6.6 m in the data set with Mus musculus [8].

In the case of `CCc1c(O)c(=O)ccn1Cc1cc2ccc(OCc3cccc(F)c3)cc2oc1=O`, in data set [1], the inhibition at 10 µM worked out at 91.9%. Besides, the pKa at 1 min, 30 µM in the data set “physchem [2]” worked out at 3.12; in the data set “physchem [3]”, 9.69. Also, the IC50 in data set [4] was 265 nM.

In the case of `COc1ccc2cc(Cn3cc(O)c(=O)cc3C)c(=O)oc2c1`, in data set [1], the inhibition at 10 µM was 38.3%. Also, the pKa at 1 min, 30 µM in “physchem [2]” is 3.15; in “physchem [3]”, 9.

On to `CCc1c(O)c(=O)ccn1Cc1cc2ccc(OCc3cccc(Cl)c3)cc2oc1=O`, for which the inhibition at 10 µM in [1] came to 92.5%. In addition, the pKa at 1 min, 30 µM is 3.1 in the data set “physchem [2]” and 9.76 in the data set “physchem [3]”. In data set [4], half-maximal inhibition (IC50) was put at 425 nM.

In the case of `CCc1c(O)c(=O)ccn1Cc1cc2ccccc2oc1=O`, in [1], the inhibition at 10 µM was 25%. Also, the pKa at 1 min, 30 µM turned out to be 3.03 in “physchem [2]” and 9.7 in “physchem [3]”.

Consider `CCc1c(O)c(=O)ccn1Cc1cc2ccc(OCc3cc(F)cc(F)c3)cc2oc1=O`, for which the inhibition at 10 µM in data set [1] was determined as 91.7%. Also, the pKa at 1 min, 30 µM in the data set “physchem [2]” was found to be 3.08; in “physchem [3]”, 9.7. Further, the IC50 in [4] was 223 nM.

On to `COc1ccc2cc(Cn3ccc(=O)c(O)c3C)c(=O)oc2c1`, for which the inhibition at 10 µM in data set [1] came out at 94.4%. Moreover, the results for the pKa at 1 min, 30 µM in “physchem [2]” and in “physchem [3]” were 3.13 and 9.66, respectively. Besides, the IC50 in data set [4] was 91.9 nM.

As for `Cc1cc(=O)c(O)cn1Cc1cc2ccccc2oc1=O`, the inhibition at 10 µM in [1] came out at 6.8%. Besides, the pKa at 1 min, 30 µM in the data set “physchem [2]” amounted to 3.14; in the data set “physchem [3]”, 8.97.

Turning to `Cc1cc(=O)c(O)cn1Cc1cc2ccc(OCc3cc(F)cc(F)c3)cc2oc1=O`, in data set [1], the inhibition at 10 µM was 68.1%. Also, the pKa at 1 min, 30 µM in the data set “physchem [2]” was 3.11; in “physchem [3]”, 8.95.

For the compound `C#CCOc1ccc2cc(Cn3ccc(=O)c(O)c3CC)c(=O)oc2c1`, in data set [1], the inhibition at 10 µM worked out at 78.1%. The values for the pKa at 1 min, 30 µM in “physchem [2]” and in “physchem [3]” were 2.95 and 9.63, respectively. The compound further had an IC50 in data set [4] of 121 nM.

Take `Cc1c(O)c(=O)ccn1Cc1cc2ccc(OCc3cccc(Cl)c3)cc2oc1=O`: the inhibition at 10 µM in data set [1] came to 21.2%. For the same compound, the pKa at 1 min, 30 µM in “physchem [2]” was 3.17; in the data set “physchem [3]”, 9.67.

On to `O=C1O[C@H]([C@@H](O)CO)C(O)=C1O` [ASCORBIC ACID], for which the Activity in the data set on U-251 [7] came out at 57.6%.

For `Cc1cc(=O)c(O)cn1Cc1cc2ccc(OCc3ccc(F)cc3)cc2oc1=O`, the inhibition at 10 µM in data set [1] worked out at 87.6%. Further, the pKa at 1 min, 30 µM came to 3.26 in the data set “physchem [2]” and 8.87 in “physchem [3]”. This compound also displayed an IC50 in data set [4] of 145 nM.

As to `Cc1c(O)c(=O)ccn1Cc1cc2ccc(OCc3cccc(F)c3)cc2oc1=O`, in the data set with Mus musculus [5], the Time is on record as 9.6 s. Further, the Activity is recorded as 16.6 with Mus musculus [6], “Non-Toxic” with U-251 [9], 57.8% in the data set with U-251 [7] and 4.2 m in the data set on Mus musculus [8]. Also, the inhibition at 10 µM in [1] worked out at 81.3%. In addition, the pKa at 1 min, 30 µM amounted to 3.1 in the data set “physchem [2]” and 9.65 in the data set “physchem [3]”. Besides, the IC50 in data set [4] was 14.7 nM.

`Cc1c(O)c(=O)ccn1C` [DEFERIPRONE]: the pKa at 1 min, 30 µM in “physchem [2]” came out at 3.65; in the data set “physchem [3]” it was 9.89. Besides, the logKb in data set [10] was determined as 27.7; in [11] it was 37.3.

Regarding `CCc1c(O)c(=O)ccn1Cc1cc2ccc(OCc3ccc(F)cc3)cc2oc1=O`, the inhibition at 10 µM in data set [1] amounted to 91.6%. The pKa at 1 min, 30 µM in the data set “physchem [2]” is 3.15; in “physchem [3]”, 9.62. This compound also gave an IC50 in [4] of 163 nM.

As for `C#CCOc1ccc2cc(Cn3cc(O)c(=O)cc3C)c(=O)oc2c1`, the inhibition at 10 µM in data set [1] came out at 50.6%. Besides, the pKa at 1 min, 30 µM in the data set “physchem [2]” was 3.07; in “physchem [3]”, 8.94.

As for `CCc1c(O)c(=O)ccn1Cc1cc2ccc(OCc3ccccc3)cc2oc1=O`, the inhibition at 10 µM in data set [1] turned out to be 91.9%. Besides, the pKa at 1 min, 30 µM in “physchem [2]” came out at 3.11; in the data set “physchem [3]”, 9.71. The IC50 in [4] is 129 nM.

As to `C#CCOc1ccc2cc(Cn3ccc(=O)c(O)c3C)c(=O)oc2c1`, the inhibition at 10 µM in data set [1] is 47.1%. The pKa at 1 min, 30 µM in the data set “physchem [2]” amounted to 3.11; in the data set “physchem [3]” it was 9.58.

For the compound `Cc1cc(=O)c(O)cn1Cc1cc2ccc(OCc3ccccc3)cc2oc1=O`, in data set [1], the inhibition at 10 µM is 86.5%. Moreover, the figures for the pKa at 1 min, 30 µM in “physchem [2]” and in the data set “physchem [3]” were 3.12 and 9.03, respectively. The compound also gave an IC50 in data set [4] of 290 nM.

Take `Cc1c(O)c(=O)ccn1Cc1cc2ccc(OCc3ccccc3)cc2oc1=O`: in data set [1], the inhibition at 10 µM came out at 89.6%. The pKa at 1 min, 30 µM worked out at 3.11 in “physchem [2]” and 9.61 in the data set “physchem [3]”. In [4], this compound returned an IC50 of 336 nM.

With `Cc1cc(=O)c(O)cn1Cc1cc2ccc(OCc3cccc(F)c3)cc2oc1=O`, the inhibition at 10 µM in data set [1] came to 85.8%. The values for the pKa at 1 min, 30 µM in the data set “physchem [2]” and in the data set “physchem [3]” were 3.15 and 8.99, respectively. The IC50 in data set [4] is 193 nM.

Turning to `Cc1c(O)c(=O)ccn1Cc1cc2ccccc2oc1=O`, the inhibition at 10 µM in [1] worked out at 22.4%. Further, the pKa at 1 min, 30 µM was 3.07 in the data set “physchem [2]” and 9.68 in the data set “physchem [3]”.

Regarding `Cc1c(O)c(=O)ccn1Cc1cc2ccc(OCc3cc(F)cc(F)c3)cc2oc1=O`, in [1], the inhibition at 10 µM was 67.5%. The pKa at 1 min, 30 µM in the data set “physchem [2]” worked out at 3.1; in the data set “physchem [3]”, 9.54.
